# Test system: total IgG2a, total and OVA-specific IgE
# Assay: IgE and IgG2a levels in serum and BALF of sensitized and challenged mice (ELISA)
# Format: in vivo, BABL/c mice
# Settings: 3~30 μmol/kg p.o.
# Description: According to the schedule (Figure 1), ten female BABL/c mice in each group were sensitized by an intraperitoneal (i.p.) injection of 20 μg of OVA emulsified in 2.25 mg of an aluminum hydroxide gel, prepared from aluminum sulfate hexadecahydrate, in a total volume of 100 μl on days 0 and 14. On day 21, these mice were injected with (i.p.) 100 μl of a mixture of 1% OVA and Freund's complete adjuvant (1:1). Mice were challenged via the airway using 1% OVA in saline for 30 min on days 28, 29, and 30 by ultrasonic nebulization. After the last of OVA challenges, AHR was assessed on day 32 (48 h after 1% OVA provocation) in each group. Each group of mice was orally (p.o.) administered the vehicle (control) or 3~30 μmol/kg of HDME 2 h before and 6 and 24 h after OVA provocation. For comparison, sham-treated mice were challenged with saline instead of 1% OVA (non-challenged). […] AHR was assessed using two methods: (1) in anesthetized ventilated mice, AHR was assessed as previously described by measuring changes in the airway resistance (RL, cmH2O/ml/sec) and lung dynamic compliance (Cdyn, ml/cmH2O) after challenge with aerosolized methacholine (MCh, 0.78~25 mg/ml) using the FlexiVent system (SCIREQ, Montreal, Quebec, Canada). Anesthetized (urethane 600 mg/kg and chloralose 120 mg/kg, i.p.), tracheostomized (stainless-steel cannula, 18 G) mice were mechanically ventilated (at 150 breaths/min, with a tidal volume of 10 ml/kg, positive end-expiratory pressure of 3 cmH2O). (2) in unrestrained animals by barometric plethysmography using a whole-body plethysmograph (WBP) and analyzed using software of Life Science Suite P3 Analysis Modules (Gould, LDS Test and Measurement LLC, Valley View, OH, USA). Mice were placed into the main chamber of the WBP, and the baseline enhanced pause (Penh) value was determined. Then mice were first nebulized with phosphate-buffered saline (PBS), and subsequently with increasing doses (6.25~50 mg/ml) of MCh for 3 min for each nebulization, followed by readings of breathing parameters for 3 min after each nebulization to determine Penh values.
# Twenty-four hours after Penh determination, these mice were anesthetized with pentobarbital (50 mg/kg, i.p.), and the lungs were lavaged via a tracheal tube with PBS (1 × 1.0 ml, 37°C). After lavage, blood was collected from the jugular vein and allowed to sit so that it would coagulate. The collected bronchoalveolar lavage fluid (BALF) and coagulated blood were respectively centrifuged at 630 g for 7 min and at 3700 g for 10 min at 4°C. After centrifugation, the BALF and serum supernatants were stored at -20°C until determination of cytokines, including interleukin (IL)-2, IL-4, IL-5, tumor necrosis factor (TNF)-α, and interferon (IFN)-γ by flow cytometric methods using mouse T helper (Th)1/Th2 cytokine CBA kits, and of total immunoglobulin (Ig)E or IgG2a using ELISA kits (Pharmingen, San Diego, CA, USA) according to the respective recommendations of the manufacturers. OVA-specific IgE was measured as described previously. Wells were coated with 100 μl of OVA (20 μg/ml) instead of the capture antibody. Levels are expressed in arbitrary units, where 1 arbitrary unit equals the optical density of the sample divided by the optical density of unchallenged mouse serum or BALF (standard). […] The number of inflammatory cells was counted using a hemocytometer (Hausser Scientific, Horsham, PA, USA). […]
smiles,measurement,value
"COc1cc(O)c2c(c1)O[C@H](c1ccc(OC)c(OC)c1)CC2=O [HDME, hesperetin-7,3'-O-dimethylether]",effect on OVA-specific IgE level in the BALF,dose-dependently and significantly suppressed
same,effect on OVA-specific IgE level in the serum,dose-dependently and significantly suppressed
same,effect on total IgE level in the BALF,dose-dependently and significantly suppressed
same,effect on total IgE level in the serum,dose-dependently and significantly suppressed
same,effect on total IgG2a level in the serum,dose-dependently and significantly enhanced

# — article PMC3225327 (Journal of Biomedical Science, 2011)
